Experimental data as given in patent US9650369B2, “Anti-migration and anti-invasion thiazole analogs for treatment of cellular proliferative disease” (XAVIER UNIVERSITY OF LOUISIANA, priority 2012, dated 2017).

Legend:
Type in all cases: cell-based
[1] = test system: MDA-MB-231 breast cancer cells; test: clonogenic assay (colony formation), MDA-MB-231; settings: for activity at 10 µM: read-out: Effect on cell proliferation (colony formation) (% of vehicle control)
Procedure: (§1) To determine if these analogs have anti-migration and anti-invasion activities in different cancer cell lines, transwell migration assays were performed using MDA-MB-231 breast cancer cells (FIG. 3) and HeLa cells (FIG. 5) for all synthetic analogs. […] Next, clonogenic assays were performed on the breast cancer cells treated with the compounds to rule out any indirect effect on cell migration due to cytotoxicity (FIG. 4). MDA-MB-231 cells were allowed to grow for 14 days in six-well plates in the presence or absence of the synthetic compounds at 10 μM.
To rule out any indirect effect on cell migration due to cytotoxicity, clonogenic assays were performed on the breast cancer cells treated with the compounds. MDA-MB-231 cells were allowed to grow for 14 days in six-well plates in the presence or absence of the synthetic compounds at 10 μM. […] For example, analog 3g blocked both cell migration (81.4%) and colony formation (42.7%). For these analogs cytotoxity may have partially contributed to their overall anti-migration effect. The cell toxicity data for all analogs are listed in Table 1 along with anti-migration data for comparison.

[2] = test system: MDA-MB-231 breast cancer cells; test: transwell migration assay, MDA-MB-231; settings: Homo sapiens; for IC50: transwell migration of MDA-MB-231 cells, read-out: IC50 (anti-migration); for inhibition at 10 µM: MDA-MB-231, MDA-MB-231, 10 μM, read-out: inhibition of cell migration
Procedure: as §1
To determine the effects of the synthesized mackroketone analogs on cancer cell migration, we performed transwell migration assay on each compound using an invasive and metastatic breast cancer cell line, MDA-MB-231. When cells were seeded at a density of 2.5×10^4 in media free of serum in the upper chamber but containing 5% FBS in the lower chamber, their ability to migrate in the presence and absence of 10 μM analogs were measured by counting the total number of cells in the lower chamber after 24 hrs.

[3] = antimigration efficacy of additional thiazole compounds (Table 3); settings: cell line not given; read-out: IC50 (anti-migration)
From the text: (§2) The additional thiazole compounds were synthesized and tested for antimigration efficacy and cytotoxicity, with results shown in TABLE 3.

[4] = cytotoxicity of additional thiazole compounds (Table 3); settings: cell line not given
From the text: as §2

[5] = Homo sapiens, 336 h, MDA-MB-231, 10 μM analogs, 14 days

Structure (SMILES)	activity at 10 µM [1, 5] [%]	further results
Cn1c(-c2ccccc2)csc1=NC(=O)c1ccc(Cl)cc1 [Compound 5c, 4-Chloro-N-(3-methyl-4-phenylthiazol-2(3H)-ylidene)benzamide]	98.2	IC50 [2]: 1120 nM
Cc1ccc(-c2csc(N)n2)c(C)c1 [Compound 2b, 2-Amino-4-(2,4-dimethylphenyl)thiazole]	111	cytotoxicity (in words) ([1]; MDA-MB-231, 10 μM, two weeks): no apparent cell toxicity; inhibition at 10 µM [2]: > 50%
O=C(Nc1nc(-c2ccccc2)cs1)C1CCCC1 [Compound 3k, N-(4-Phenylthiazol-2-yl)cyclopentanecarboxamide]	99.8	–
Cc1ccc(-c2csc(NC(=O)c3ccccc3)n2)c(C)c1 [Compound 3o, N-(4-(2,4-dimethylphenyl)thiazol-2-yl)benzamide]	85	IC50 [2]: 839 nM
O=C(Nc1nc(-c2ccccc2)cs1)c1ccc(Cl)cc1 [Compound 3c, 4-Chloro-N-(4-phenylthiazol-2-yl)benzamide]	95	–
COc1ccc(C(=O)N(C)c2nc(-c3ccccc3)cs2)cc1OC [Compound 4c, 3,4-Dimethoxy-N-methyl-N-(4-phenylthiazol-2-yl)benzamide]	97.1	–
O=C(Nc1nc(-c2ccccc2)cs1)c1ccc(Br)cc1 [Compound 3d, 4-Bromo-N-(4-phenylthiazol-2-yl)benzamide]	98.6	–
Cc1ccc(-c2csc(NC(=O)c3cccs3)n2)c(C)c1 [Compound 3f, N-(4-(2,4-Dimethylphenyl)thiazol-2-yl)thiophene-2-carboxamide]	67.5	–
O=C(Nc1nc(-c2ccccc2)cs1)c1ccccc1 [Compound 3j, N-(4-Phenylthiazol-2-yl)benzamide]	105	IC50 [2]: 1290 nM
O=C(Nc1nc(-c2ccccc2)cs1)c1cccnc1 [Compound 3h, N-(4-Phenylthiazol-2-yl)nicotinamide]	103	–
Cc1ccc(-c2cs/c(=N/C(=O)c3cccs3)n2C)c(C)c1 [Compound 5f, N-(4-(2,4-dimethylphenyl)-3-methylthiazol-2(3H)-yliene)thiophene-2-carboxamide]	102	–
CN(C(=O)c1ccc(Br)cc1)c1nc(-c2ccccc2)cs1 [Compound 4a, 4-Bromo-N-methyl-N-(4-phenylthiazol-2-yl)benzamide]	108	–
COc1cc(C(=O)Nc2nc(-c3ccccc3)cs2)cc(OC)c1OC [Compound 3e, 3,4,5-Trimethoxy-N-(4-phenylthiazol-2-yl)benzamide]	80.9	–
CCCCCCCCCCCC(=O)N(C)c1nc(-c2ccccc2)cs1 [Compound 4i, N-Methyl-N-(4-phenylthiazol-2-yl)dodecanamide]	111	–
CN(C(=O)C1CCCC1)c1nc(-c2ccccc2)cs1 [Compound 4f, N-Methyl-N-(4-phenylthiazol-2-yl)cyclopentanecarboxamide]	132	–
COc1cc(C(=O)/N=c2/scc(-c3ccccc3)n2C)cc(OC)c1OC [Compound 5e, 3,4,5-Trimethoxy-N-(3-methyl-4-phenylthiazol-2(3H)-yliene)benzamide]	75.4	–
Cn1c(-c2ccccc2)cs/c1=N/C(=O)c1ccco1 [Compound 5b, N-(3-Methyl-4-phenylthiazol-2(3H)-yliene)furan-2-carboxamide]	107	–
O=C(Nc1nc(-c2ccccc2)cs1)c1cccs1 [Compound 3a, N-(4-Phenylthiazol-2-yl)thiophene-2-carboxamide]	85.9	IC50 [2]: 2490 nM
CN(C(=O)C1CCCCC1)c1nc(-c2ccccc2)cs1 [Compound 4g, N-Methyl-N-(4-phenylthiazol-2-yl)cyclohexanecarboxamide]	97.5	–

Structure (SMILES)	activity at 10 µM [1, 5] [%]	further results
CCCCCC(=O)N(C)c1nc(-c2ccccc2)cs1 [Compound 4h, N-Methyl-N-(4-phenylthiazol-2-yl)hexanamide]	128	–
COc1ccc(C(=O)Nc2nc(-c3ccccc3)cs2)cc1OC [Compound 3g, 3,4-Dimethoxy-N-(4-phenylthiazol-2-yl)benzamide]	57.3	inhibition at 10 µM ([1]; Homo sapiens, 336 h, MDA-MB-231, 10 μM, two weeks): 42.7%; inhibition at 10 µM [2]: > 80%
Cc1ccc(-c2csc(N(C)C(=O)c3cccs3)n2)c(C)c1 [Compound 4b, N-(4-(2,4-dimethylphenyl)thiazol-2-yl)-N-methylthiophene-2-carboxamide]	97.7	–
O=C(Nc1nc(-c2ccccc2)cs1)c1ccco1 [Compound 3b, N-(4-Phenylthiazol-2-yl)furan-2-carboxamide]	98.8	–
COc1ccc(C(=O)N=c2scc(-c3ccccc3)n2C)cc1OC [Compound 5g, 3,4-Dimethoxy-N-(3-methyl-4-phenylthiazol-2(3H)-yliene)benzamide]	–	Effect on cell proliferation (colony formation) (% of vehicle control) ([1]; MDA-MB-231, 10 μM analogs, 14 days): 40.9%
CCCCCC(=O)Nc1nc(-c2ccccc2)cs1 [Compound 3m, N-(4-Phenylthiazol-2-yl)hexanamide]	90.7	–
Cn1c(-c2ccccc2)cs/c1=N/C(=O)c1cccs1 [Compound 5a, N-(3-Methyl-4-phenylthiazol-2(3H)-yliene)thiophene-2-carboxamide]	85	–
O=C(Nc1nc(-c2ccccc2)cs1)C1CCCCC1 [Compound 3l, N-(4-Phenylthiazol-2-yl)cyclohexanecarboxamide]	103	–
Nc1nc(-c2ccccc2)cs1 [Compound 2a, 2-Amino-4-phenylthiazole]	104	–
Cn1c(-c2ccccc2)cs/c1=N/C(=O)c1cccnc1 [Compound 5h, N-(3-Methyl-4-phenylthiazol-2(3H)-yliene)nicotinamide]	112	–
Cn1c(-c2ccccc2)cs/c1=N/C(=O)c1ccc(Br)cc1 [Compound 5d, 4-Bromo-N-(3-methyl-4-phenylthiazol-2(3H)-yliene)benzamide]	63.8	–
COc1cc(-c2csc(N(C)C(=O)c3ccccc3)n2)cc(OC)c1OC [Compound 16d, N-Methyl-N-(4-(3,4,5-trimethoxyphenyl)thiazol-2-yl)benzamide]	–	IC50 [3]: 10000 nM; Cytotoxicity (Survival at 1 μM) [4]: 96.4%
CCN(C(=O)c1ccco1)c1nc(-c2ccccc2)cs1 [Compound 4d, N-Ethyl-N-(4-phenylthiazol-2-yl)furan-2-carboxamide]	96.5	–
Cc1sc(NC(=O)c2ccccc2)nc1-c1ccc(F)cc1 [Compound 14i, N-(4-(4-Fluorophenyl)-5-methylthiazol-2-yl)benzamide]	–	IC50 [3]: 9100 nM; Cytotoxicity (Survival at 1 μM) [4]: 53.7%
O=C(Nc1nc(-c2ccccc2Cl)cs1)c1ccccc1 [Compound 14b, N-(4-(2-Chlorophenyl)thiazol-2-yl)benzamide]	–	IC50 [3]: 15000 nM; Cytotoxicity (Survival at 1 μM) [4]: 102.4%
COc1cc(-c2csc(NC(=O)c3ccc(Cl)cc3)n2)cc(OC)c1OC [Compound 14l, 4-Chloro-N-(4-(3,4,5-trimethoxyphenyl)thiazol-2-yl)benzamide]	–	IC50 [3]: > 25000 nM; Cytotoxicity (Survival at 1 μM) [4]: 85.6%
Cc1csc(NC(=O)c2ccccc2)n1 [Compound 14a, N-(4-Methylthiazol-2-yl)benzamide]	–	IC50 [3]: 12000 nM; Cytotoxicity (Survival at 1 μM) [4]: 103.1%
CCN(C(=O)c1ccccc1)c1nc(-c2ccccc2)cs1 [Compound 7a, N-Ethyl-N-(4-phenylthiazol-2-yl)benzamide]	–	IC50 [3]: 565 nM; Cytotoxicity (Survival at 1 μM) [4]: 68.5%
